{"source": "paper PMC10221159", "about": "“Investigation of N-Acetyltransferase 2-Mediated Drug Interactions of Amifampridine: In Vitro and In Vivo Evidence of Drug Interactions with Acetaminophen” (Pharmaceutics, 2023)", "origin": "cited, not measured here", "details": "humans, cited from earlier work"}
{"smiles": "Nc1ccncc1N", "note": "[amifampridine]", "values": [{"measurement": "dose excreted via the urine within 24 h", "setting": "after administration of amifampridine", "result": 19, "unit": "%"}, {"measurement": "dose excreted via the urine within 24 h as amifampridine plus 3-N-acetylamifampridine", "result": "More than 90%"}, {"measurement": "elimination half-life", "result": "approximately 2.5 h"}]}
